Data reported in ChEMBL document CHEMBL4507277.

Key:
[1] = molecular target: Macrophage colony-stimulating factor 1 receptor (Homo sapiens) (UniProt P07333); details: Compound concentration 1000.0 nM
[2] = molecular target: Serine/threonine-protein kinase/endoribonuclease IRE1 (Homo sapiens) (UniProt O75460); details: Compound concentration 1000.0 nM
[3] = molecular target: Ephrin type-A receptor 6 (Homo sapiens) (UniProt Q9UF33); details: Compound concentration 1000.0 nM
[4] = molecular target: Ephrin type-A receptor 8 (Homo sapiens) (UniProt P29322); details: Compound concentration 1000.0 nM
[5] = molecular target: Mitogen-activated protein kinase kinase kinase 1 (Homo sapiens) (UniProt Q13233); details: Compound concentration 1000.0 nM
[6] = molecular target: Tyrosine-protein kinase ABL1 (Homo sapiens) (UniProt P00519); details: Compound concentration 1000.0 nM
[7] = molecular target: Mitogen-activated protein kinase kinase kinase 15 (Homo sapiens) (UniProt Q6ZN16); details: Compound concentration 1000.0 nM
[8] = molecular target: Mitogen-activated protein kinase kinase kinase kinase 5 (Homo sapiens) (UniProt Q9Y4K4); details: Compound concentration 1000.0 nM
[9] = molecular target: Bone morphogenetic protein receptor type-2 (Homo sapiens) (UniProt Q13873); details: Compound concentration 1000.0 nM
[10] = tested on: Mast/stem cell growth factor receptor Kit (Homo sapiens), P10721 [V559D]; details: Compound concentration 1000.0 nM
[11] = molecular target: Serine/threonine-protein kinase ULK1 (Homo sapiens) (UniProt O75385); details: Compound concentration 1000.0 nM
[12] = molecular target: Receptor tyrosine-protein kinase erbB-2 (Homo sapiens) (UniProt P04626); details: Compound concentration 1000.0 nM
[13] = molecular target: Ephrin type-A receptor 2 (Homo sapiens) (UniProt P29317); details: Compound concentration 1000.0 nM
[14] = molecular target: Serine/threonine-protein kinase ULK3 (Homo sapiens) (UniProt Q6PHR2); details: Compound concentration 1000.0 nM
[15] = molecular target: Proto-oncogene tyrosine-protein kinase receptor Ret (Homo sapiens) (UniProt P07949); details: Compound concentration 1000.0 nM
[16] = molecular target: Serine/threonine-protein kinase N1 (Homo sapiens) (UniProt Q16512); details: Compound concentration 1000.0 nM
[17] = molecular target: Histamine H2 receptor (Homo sapiens) (UniProt P25021); details: Compound concentration 10.0 uM
[18] = molecular target: Serine/threonine-protein kinase DCLK3 (Homo sapiens) (UniProt Q9C098); details: Compound concentration 1000.0 nM
[19] = molecular target: Serine/threonine-protein kinase pim-3 (Homo sapiens) (UniProt Q86V86); details: Compound concentration 1000.0 nM
[20] = tested on: Receptor-type tyrosine-protein kinase FLT3 (Homo sapiens), P36888 [UNDEFINED MUTATION]; details: Compound concentration 1000.0 nM
[21] = molecular target: 5-hydroxytryptamine receptor 2A (Homo sapiens) (UniProt P28223); details: Compound concentration 10.0 uM
[22] = molecular target: Serine/threonine-protein kinase WNK3 (Homo sapiens) (UniProt Q9BYP7); details: Compound concentration 1000.0 nM
[23] = molecular target: Non-receptor tyrosine-protein kinase TYK2 (Homo sapiens) (UniProt P29597); details: Compound concentration 1000.0 nM
[24] = molecular target: Serine/threonine-protein kinase ULK2 (Homo sapiens) (UniProt Q8IYT8); details: Compound concentration 1000.0 nM
[25] = molecular target: Calcium/calmodulin-dependent protein kinase type IV (Homo sapiens) (UniProt Q16566); details: Compound concentration 1000.0 nM
[26] = molecular target: Calcium-dependent protein kinase 1 (Plasmodium falciparum) (UniProt P62344); details: Compound concentration 1000.0 nM
[27] = molecular target: Serine/threonine-protein kinase D3 (Homo sapiens) (UniProt O94806); details: Compound concentration 1000.0 nM
[28] = molecular target: Cyclin-dependent kinase-like 3 (Homo sapiens) (UniProt Q8IVW4); details: Compound concentration 1000.0 nM
[29] = molecular target: Fibroblast growth factor receptor 4 (Homo sapiens) (UniProt P22455); details: Compound concentration 1000.0 nM
[30] = tested on: Tyrosine-protein kinase ABL1 (Homo sapiens), P00519 [Y253F]; details: Compound concentration 1000.0 nM
[31] = molecular target: Tyrosine-protein kinase Fes/Fps (Homo sapiens) (UniProt P07332); details: Compound concentration 1000.0 nM
[32] = molecular target: Mitogen-activated protein kinase 13 (Homo sapiens) (UniProt O15264); details: Compound concentration 1000.0 nM
[33] = tested on: Phosphatidylinositol 4,5-bisphosphate 3-kinase catalytic subunit alpha isoform (Homo sapiens), P42336 [I800L]; details: Compound concentration 1000.0 nM
[34] = molecular target: Rho-associated protein kinase 2 (Homo sapiens) (UniProt O75116); details: Compound concentration 1000.0 nM
[35] = molecular target: Cyclin-dependent kinase-like 2 (Homo sapiens) (UniProt Q92772); details: Compound concentration 1000.0 nM
[36] = molecular target: Delta-type opioid receptor (Homo sapiens) (UniProt P41143); details: Compound concentration 10.0 uM
[37] = tested on: Receptor-type tyrosine-protein kinase FLT3 (Homo sapiens), P36888 [UNDEFINED MUTATION]; details: Compound concentration 1000.0 nM; remark: listed apart in the source
[38] = molecular target: Protein kinase C epsilon type (Homo sapiens) (UniProt Q02156); details: Compound concentration 1000.0 nM
[39] = molecular target: Ephrin type-A receptor 3 (Homo sapiens) (UniProt P29320); details: Compound concentration 1000.0 nM
[40] = molecular target: Ephrin type-B receptor 3 (Homo sapiens) (UniProt P54753); details: Compound concentration 1000.0 nM
[41] = molecular target: Ephrin type-B receptor 1 (Homo sapiens) (UniProt P54762); details: Compound concentration 1000.0 nM
[42] = molecular target: Serine/threonine-protein kinase PknB (Mycobacterium tuberculosis) (UniProt P9WI81); details: Compound concentration 1000.0 nM
[43] = molecular target: Myosin light chain kinase 2, skeletal/cardiac muscle (Homo sapiens) (UniProt Q9H1R3); details: Compound concentration 1000.0 nM
[44] = tested on: Receptor-type tyrosine-protein kinase FLT3 (Homo sapiens), P36888 [K663Q]; details: Compound concentration 1000.0 nM
[45] = molecular target: Serine/threonine-protein kinase RIO3 (Homo sapiens) (UniProt O14730); details: Compound concentration 1000.0 nM

Sequence of Mast/stem cell growth factor receptor Kit (Homo sapiens), P10721 [V559D] (P10721 whole entry V559D): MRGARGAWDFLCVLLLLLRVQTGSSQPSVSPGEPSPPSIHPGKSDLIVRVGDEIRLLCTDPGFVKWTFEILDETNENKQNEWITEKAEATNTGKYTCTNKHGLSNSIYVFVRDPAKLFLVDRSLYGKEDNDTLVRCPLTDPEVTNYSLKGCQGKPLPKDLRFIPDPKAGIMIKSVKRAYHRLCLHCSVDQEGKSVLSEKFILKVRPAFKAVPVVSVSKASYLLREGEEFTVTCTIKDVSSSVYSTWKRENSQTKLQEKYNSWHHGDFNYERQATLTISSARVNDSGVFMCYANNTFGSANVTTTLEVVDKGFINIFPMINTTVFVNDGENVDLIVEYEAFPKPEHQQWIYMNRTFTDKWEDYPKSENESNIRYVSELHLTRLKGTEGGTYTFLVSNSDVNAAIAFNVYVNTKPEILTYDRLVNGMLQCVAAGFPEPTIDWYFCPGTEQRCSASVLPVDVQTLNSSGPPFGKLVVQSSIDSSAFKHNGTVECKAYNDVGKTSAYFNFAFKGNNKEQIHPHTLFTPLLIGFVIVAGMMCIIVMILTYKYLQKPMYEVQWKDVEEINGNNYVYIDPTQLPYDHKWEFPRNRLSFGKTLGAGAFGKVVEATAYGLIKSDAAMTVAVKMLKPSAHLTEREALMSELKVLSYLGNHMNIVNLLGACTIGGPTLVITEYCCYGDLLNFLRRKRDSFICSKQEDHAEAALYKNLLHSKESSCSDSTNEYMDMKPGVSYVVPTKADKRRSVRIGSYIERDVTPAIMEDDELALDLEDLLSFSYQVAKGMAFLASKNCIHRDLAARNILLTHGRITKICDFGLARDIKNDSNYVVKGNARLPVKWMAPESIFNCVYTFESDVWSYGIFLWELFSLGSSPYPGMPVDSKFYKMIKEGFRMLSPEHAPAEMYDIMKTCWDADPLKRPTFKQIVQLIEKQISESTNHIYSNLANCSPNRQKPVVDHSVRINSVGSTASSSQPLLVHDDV
Sequence of Fibroblast growth factor receptor 4 (Homo sapiens) (P22455 22-802 limits assumed): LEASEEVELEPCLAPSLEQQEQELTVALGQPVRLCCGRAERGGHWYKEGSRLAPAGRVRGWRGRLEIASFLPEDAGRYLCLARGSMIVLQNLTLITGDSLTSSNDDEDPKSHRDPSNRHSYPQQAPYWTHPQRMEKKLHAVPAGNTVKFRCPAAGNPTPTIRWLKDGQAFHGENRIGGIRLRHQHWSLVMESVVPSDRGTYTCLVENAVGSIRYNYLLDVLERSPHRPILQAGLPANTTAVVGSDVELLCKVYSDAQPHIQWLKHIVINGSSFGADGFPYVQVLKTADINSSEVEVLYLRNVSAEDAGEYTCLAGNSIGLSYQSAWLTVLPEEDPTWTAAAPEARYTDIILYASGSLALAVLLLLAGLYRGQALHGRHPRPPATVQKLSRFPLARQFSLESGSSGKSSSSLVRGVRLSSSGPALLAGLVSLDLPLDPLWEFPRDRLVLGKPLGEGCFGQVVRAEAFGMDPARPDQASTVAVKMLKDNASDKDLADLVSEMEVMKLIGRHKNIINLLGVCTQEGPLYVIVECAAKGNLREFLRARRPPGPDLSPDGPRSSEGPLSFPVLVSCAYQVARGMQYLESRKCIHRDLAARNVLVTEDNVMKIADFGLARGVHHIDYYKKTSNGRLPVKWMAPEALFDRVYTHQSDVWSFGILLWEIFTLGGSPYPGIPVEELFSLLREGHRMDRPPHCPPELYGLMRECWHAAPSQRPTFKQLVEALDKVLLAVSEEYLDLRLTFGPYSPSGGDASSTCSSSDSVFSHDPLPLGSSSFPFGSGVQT
Sequence of Serine/threonine-protein kinase PknB (Mycobacterium tuberculosis) (P9WI81 whole entry): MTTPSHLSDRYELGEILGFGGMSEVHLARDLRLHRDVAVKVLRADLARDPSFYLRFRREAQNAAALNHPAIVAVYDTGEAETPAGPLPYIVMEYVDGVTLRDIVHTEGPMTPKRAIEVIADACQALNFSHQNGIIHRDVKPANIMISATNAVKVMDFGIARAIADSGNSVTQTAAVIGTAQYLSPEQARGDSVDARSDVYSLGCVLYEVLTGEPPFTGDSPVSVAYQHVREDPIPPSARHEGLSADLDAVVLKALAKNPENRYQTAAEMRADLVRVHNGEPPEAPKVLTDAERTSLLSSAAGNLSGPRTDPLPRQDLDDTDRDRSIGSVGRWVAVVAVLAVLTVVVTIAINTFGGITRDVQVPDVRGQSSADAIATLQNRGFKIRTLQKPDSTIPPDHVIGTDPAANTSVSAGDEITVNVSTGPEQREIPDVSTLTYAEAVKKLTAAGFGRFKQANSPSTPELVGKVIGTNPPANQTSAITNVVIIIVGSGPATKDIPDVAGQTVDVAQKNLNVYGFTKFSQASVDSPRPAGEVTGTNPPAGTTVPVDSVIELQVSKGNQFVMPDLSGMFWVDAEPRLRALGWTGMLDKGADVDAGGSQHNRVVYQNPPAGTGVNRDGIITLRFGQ
Sequence of Serine/threonine-protein kinase D3 (Homo sapiens) (O94806 whole entry): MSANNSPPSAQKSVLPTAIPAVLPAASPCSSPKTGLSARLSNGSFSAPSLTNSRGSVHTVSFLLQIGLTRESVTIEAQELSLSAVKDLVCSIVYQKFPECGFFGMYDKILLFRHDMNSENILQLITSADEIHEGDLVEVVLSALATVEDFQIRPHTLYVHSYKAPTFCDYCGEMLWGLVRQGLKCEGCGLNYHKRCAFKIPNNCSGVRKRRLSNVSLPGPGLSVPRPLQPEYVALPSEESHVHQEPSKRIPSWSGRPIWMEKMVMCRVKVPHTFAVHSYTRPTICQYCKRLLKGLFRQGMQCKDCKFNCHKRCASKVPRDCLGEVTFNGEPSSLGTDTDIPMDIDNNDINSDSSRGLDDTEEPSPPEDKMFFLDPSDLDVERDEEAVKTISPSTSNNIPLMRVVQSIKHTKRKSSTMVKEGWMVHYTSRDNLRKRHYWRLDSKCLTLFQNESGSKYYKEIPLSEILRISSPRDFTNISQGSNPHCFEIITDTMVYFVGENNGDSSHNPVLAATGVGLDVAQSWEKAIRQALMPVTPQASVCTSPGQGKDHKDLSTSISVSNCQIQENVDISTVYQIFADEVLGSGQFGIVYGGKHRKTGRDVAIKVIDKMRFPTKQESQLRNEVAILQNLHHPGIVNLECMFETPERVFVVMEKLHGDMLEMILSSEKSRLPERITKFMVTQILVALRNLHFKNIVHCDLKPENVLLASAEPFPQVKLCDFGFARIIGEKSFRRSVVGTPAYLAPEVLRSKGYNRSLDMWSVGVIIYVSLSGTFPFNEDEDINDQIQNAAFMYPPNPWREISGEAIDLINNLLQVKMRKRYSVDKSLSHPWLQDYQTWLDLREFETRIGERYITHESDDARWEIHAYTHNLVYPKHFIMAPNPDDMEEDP
Sequence of Serine/threonine-protein kinase WNK3 (Homo sapiens) (Q9BYP7 whole entry): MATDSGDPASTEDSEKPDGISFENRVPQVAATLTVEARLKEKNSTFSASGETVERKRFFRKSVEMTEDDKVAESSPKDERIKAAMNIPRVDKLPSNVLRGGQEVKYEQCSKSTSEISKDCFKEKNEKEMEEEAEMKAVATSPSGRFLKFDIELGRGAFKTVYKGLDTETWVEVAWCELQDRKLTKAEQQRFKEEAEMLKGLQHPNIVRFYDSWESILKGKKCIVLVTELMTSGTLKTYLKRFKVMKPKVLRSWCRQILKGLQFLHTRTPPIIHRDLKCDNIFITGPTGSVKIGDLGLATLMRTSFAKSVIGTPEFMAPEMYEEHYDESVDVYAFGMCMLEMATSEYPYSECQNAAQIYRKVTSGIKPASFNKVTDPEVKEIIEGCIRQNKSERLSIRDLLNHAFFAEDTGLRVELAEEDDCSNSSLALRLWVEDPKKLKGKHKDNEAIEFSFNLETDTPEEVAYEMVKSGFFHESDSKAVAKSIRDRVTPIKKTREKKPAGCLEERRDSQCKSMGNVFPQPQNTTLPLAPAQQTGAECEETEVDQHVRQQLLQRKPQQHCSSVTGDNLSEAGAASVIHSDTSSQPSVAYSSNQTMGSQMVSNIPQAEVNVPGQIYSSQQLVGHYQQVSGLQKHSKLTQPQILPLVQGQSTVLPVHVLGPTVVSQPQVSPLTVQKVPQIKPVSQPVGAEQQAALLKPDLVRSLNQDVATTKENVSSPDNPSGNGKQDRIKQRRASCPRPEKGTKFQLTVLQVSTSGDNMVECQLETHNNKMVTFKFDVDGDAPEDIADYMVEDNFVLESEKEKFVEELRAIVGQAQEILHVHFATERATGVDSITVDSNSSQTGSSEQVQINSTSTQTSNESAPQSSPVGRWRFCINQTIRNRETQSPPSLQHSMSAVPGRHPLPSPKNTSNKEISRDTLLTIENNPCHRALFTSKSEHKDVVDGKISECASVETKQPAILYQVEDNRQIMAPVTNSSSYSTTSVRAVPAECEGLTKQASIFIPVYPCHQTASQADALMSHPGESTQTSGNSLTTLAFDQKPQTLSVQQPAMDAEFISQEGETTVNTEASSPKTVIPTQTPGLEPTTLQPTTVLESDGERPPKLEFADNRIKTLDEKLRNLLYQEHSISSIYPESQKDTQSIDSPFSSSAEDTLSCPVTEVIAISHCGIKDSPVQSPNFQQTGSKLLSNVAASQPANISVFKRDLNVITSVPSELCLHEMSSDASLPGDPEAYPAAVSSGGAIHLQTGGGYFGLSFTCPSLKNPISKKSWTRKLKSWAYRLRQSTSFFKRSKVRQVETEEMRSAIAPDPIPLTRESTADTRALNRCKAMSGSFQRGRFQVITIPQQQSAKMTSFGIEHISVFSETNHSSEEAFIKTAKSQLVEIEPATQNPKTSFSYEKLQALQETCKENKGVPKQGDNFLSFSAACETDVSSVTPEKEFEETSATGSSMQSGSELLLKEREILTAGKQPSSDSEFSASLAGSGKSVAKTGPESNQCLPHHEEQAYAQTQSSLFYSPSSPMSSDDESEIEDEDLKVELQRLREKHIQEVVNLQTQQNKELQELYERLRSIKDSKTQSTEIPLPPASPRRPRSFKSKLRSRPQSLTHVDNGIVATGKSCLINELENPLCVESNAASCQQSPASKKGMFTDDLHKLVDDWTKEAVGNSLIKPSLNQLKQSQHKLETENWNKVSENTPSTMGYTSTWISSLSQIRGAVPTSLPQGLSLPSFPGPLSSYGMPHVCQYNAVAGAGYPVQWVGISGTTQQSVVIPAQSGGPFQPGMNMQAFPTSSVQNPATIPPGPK

CCS(=O)(=O)c1cc2cc(C[C@@](O)(CC(C)(C)c3ccc(F)cc3C(N)=O)C(F)(F)F)[nH]c2cn1
inactive: residual activity [1] 100% | residual activity [2] 75% | residual activity [3] 100% | residual activity [4] 100% | residual activity [5] 51% | residual activity [6] 99% | residual activity [7] 57% | residual activity [8] 99% | residual activity [9] 91% | residual activity [10] 100% | residual activity [11] 100% | residual activity [12] 100% | residual activity [13] 67% | residual activity [14] 98% | residual activity [15] 100% | residual activity [16] 85% | inhibition [17] 6.84% | residual activity [18] 100% | residual activity [19] 100% | residual activity [20] 86% | inhibition [21] 14.1% | residual activity [22] 100% | residual activity [23] 83% | residual activity [24] 85% | residual activity [25] 100% | residual activity [26] 99% | residual activity [27] 100% | residual activity [28] 90% | residual activity [29] 100% | residual activity [30] 72% | residual activity [31] 100% | residual activity [32] 96% | residual activity [33] 70% | residual activity [34] 76% | residual activity [35] 90% | inhibition [36] -3.88% | residual activity [37] 73% | residual activity [38] 100% | residual activity [39] 85% | residual activity [40] 92% | residual activity [41] 92% | residual activity [42] 84% | residual activity [43] 100% | residual activity [44] 83% | residual activity [45] 74%

CCS(=O)(=O)c1cc2cc(C[C@](O)(CC(C)(C)c3ccc(F)cc3C(N)=O)C(F)(F)F)[nH]c2cn1
inactive: residual activity [1] 100% | residual activity [2] 91% | residual activity [3] 100% | residual activity [4] 82% | residual activity [5] 87% | residual activity [6] 100% | residual activity [7] 97% | residual activity [8] 100% | residual activity [9] 100% | residual activity [10] 100% | residual activity [11] 100% | residual activity [12] 100% | residual activity [13] 81% | residual activity [14] 100% | residual activity [15] 93% | residual activity [16] 100% | inhibition [17] 12.3% | residual activity [18] 100% | residual activity [19] 100% | residual activity [20] 95% | inhibition [21] 12.6% | residual activity [22] 100% | residual activity [23] 93% | residual activity [24] 100% | residual activity [25] 100% | residual activity [26] 100% | residual activity [27] 99% | residual activity [28] 100% | residual activity [29] 72% | residual activity [30] 93% | residual activity [31] 100% | residual activity [32] 100% | residual activity [33] 73% | residual activity [34] 100% | residual activity [35] 93% | inhibition [36] -2.58% | residual activity [37] 86% | residual activity [38] 96% | residual activity [39] 95% | residual activity [40] 100% | residual activity [41] 86% | residual activity [42] 95% | residual activity [43] 98% | residual activity [44] 100% | residual activity [45] 91%
